Measurements as given in patent US20100092539A1, “Fluorinated GHRH Antagonists” (priority 2008, published 2010).

Tested on: PC-3 human hormone-independent prostate cancer
Test: Effect of treatment with GH-RH antagonists on PC-3 human prostate cancer xenografts in nude mice
Type: in vivo
Settings: PC-3 xenografts s.c. in male nude mice, 2 ug/day s.c., single daily injections for 28
Experimental: Male nude mice were implanted s.c. with 3 mm3 pieces of PC-3 human hormone-independent prostate cancer tissue on both flanks. When tumors reached a volume of approximately 50 mm3, the mice were divided into 14 experimental groups with 8 to 10 animals in each group and received single daily injections for 28 as follows: 1. Control (vehicle solution); 2. P-12211 (2 μg/day s.c.); 3. P-12307 (2 μg/day s.c.); 4. P-12317 (2 μg/day s.c.); 5. P-12408 (2 μg/day s.c.); 6. P-12409 (2 μg/day s.c.); 7. P-12457 (2 μg/day s.c.); 8. P-12473 (2 μg/day s.c.); 9. P-12479 (2 μg/day s.c.); 10. P-12600 (2 μg/day s.c.); 11. P-12601 (2 μg/day s.c.); 12. P-12602 (2 μg/day s.c.); 13. P-12603 (2 μg/day s.c.); and 14. P-12610 (2 μg/day s.c.).
Effect of Treatment with GH-RH Antagonists on PC-3 Human Prostate Cancer Xenografts in Nude Mice

[PhAc^0-Tyr^1, D-Arg^2, Cpa^6, Ala^8, Har^9, Fpa5^10, His^11, Orn^12, Abu^15, His^20, Orn^21, Nle^27, D-Arg^28, Har^29, Ada^30]hGH-RH(1-30)NH2 [Peptide P-12610]
Tumor Growth after 4 weeks (%) (control 2137.62): 474.98% | Tumor growth inhibition after 4 weeks (%) (versus control): 77.78%
